Experimental data published in ChEMBL document CHEMBL1142809, “SAR studies of 2-arylthiazolidine-4-carboxylic acid amides: a novel class of cytotoxic agents for prostate cancer” (Bioorg Med Chem Lett, 2005).

Experiments:
Assay type in all cases: functional, cell-based
PC-3 = assay: Antiproliferative activity against human prostate cancer PC-3 cell line by sulforhodamine B assay
[1] = Antiproliferative activity against human prostate cancer TSU-Pr1 cell line by sulforhodamine B assay
LNCaP = assay: Antiproliferative activity against human prostate cancer LNCaP cell line by sulforhodamine B assay
DU-145 = assay: Antiproliferative activity against human prostate cancer DU-145 cell line by sulforhodamine B assay
[2] = Antiproliferative activity against human prostate cancer PPC-1 cell line by sulforhodamine B assay

Row | IC50 (PC-3) | IC50 (LNCaP) | IC50 (DU-145) | Compound | IC50 [1] | IC50 [2]
1 | > 20 µM | 6.1 µM | > 20 µM | CCCCCCCCCCCCCCCCCCNC(=O)[C@@H]1CSC(c2ccc(OCC)cc2)N1 (stereo not given in full) | > 20 µM | 4.4 µM
2 | > 20 µM | > 20 µM | > 20 µM | CCCCCCCCCCCCCCCCCCNC(=O)[C@H]1NC(c2ccc(N(C)C)cc2)SC1(C)C (stereo not given in full) | > 20 µM | > 20 µM
3 | 6.7 µM | 1.7 µM | 5.7 µM | CCCCCCCCCCCCCCCCCCNC(=O)[C@@H]1CSC(c2cccc(O)c2)N1 (stereo not given in full) | 4 µM | 1.2 µM
4 | 10.6 µM | 2.4 µM | 7.3 µM | CCCCCCCCCCCCCCCCCCNC(=O)[C@@H]1CSC(c2c(OC)cc(OC)cc2OC)N1 (stereo not given in full) | 6.1 µM | 0.83 µM
5 | 4 µM | 0.82 µM | 3.9 µM | CCCCCCCCCCCCCCCCCCNC(=O)[C@@H]1CSC(c2cc(OC)c(OC)c(OC)c2)N1 (stereo not given in full) | 2.4 µM | 0.48 µM
6 | > 20 µM | > 20 µM | > 20 µM | CCCCCCCCCCCCCCCCCCNC(=O)[C@H]1NC(c2cc(OC)c(OC)c(OC)c2)SC1(C)C (stereo not given in full) | > 20 µM | 18.8 µM
7 | > 20 µM | 8.7 µM | > 20 µM | CCCCCCCCN(CCCCCCCC)C(=O)[C@@H]1CSC(c2cc(OC)c(OC)c(OC)c2)N1 (stereo not given in full) | > 20 µM | 14.1 µM
8 | 6 µM | 1.6 µM | 5.3 µM | CCCCCCCCCCCCCCCCCCNC(=O)[C@@H]1CSC(c2ccc(N(C)C)cc2)N1 (stereo not given in full) | 3 µM | 1.1 µM
9 | 5.3 µM | 1.6 µM | 3.1 µM | CCCCCCCCCCCCCCCCCCNC(=O)[C@@H]1CSC(c2ccc(O)cc2)N1 (stereo not given in full) | 3 µM | 0.82 µM
10 | 19 µM | 2.1 µM | 8.7 µM | CCCCCCCCCCCCCCCCCCNC(=O)[C@@H]1CSC(c2ccc(OC)cc2)N1 (stereo not given in full) | 19.6 µM | 1.5 µM
